Measurements from patent US5650442A (priority 1994, dated 1997).
Entries after “also recorded” stand apart in the source; their conditions may differ.

Legend:
[1] = system: Chinese hamster V79 cells; assay: Survival of hypoxic V79 cells after a single radiation dose; type: cell-based; details: vs control cells
Procedure: Chinese hamster V79 cells were exposed to 15 Gy radiation under hypoxic conditions in the absence or presence of 1 mM SPER/NO (H2 N(CH2)3 N[N(O)NO]^- (CH2)4 NH2^+ (CH2)3 NH2).
Chinese hamster V79 cells were exposed to 20 Gy radiation under hypoxic conditions in the absence or presence of 2 mM SNAP.
Chinese hamster V79 cells were exposed to a single 20 Gy dose of radiation in the absence or presence of 2 mM SIN-1 or PAPA/NO. […] The data are consistent with the requirement of SIN-1 for oxygen, unlike the NONOates, which release NO independent of oxygen levels.

[2] = system: embryohal ovarian carcinoma (EOC) ascites tumors; assay: Survival of mice with EOC ascites tumors treated with melphalan with or without DEA/NO; type: in vivo, C3H mice
Procedure: Female C3H mice with embryohal ovarian carcinoma (EOC) ascites tumors were generated by intraperitoneal injection of 1.0×10^5 EOC cells at 10 weeks. Eight days later, when ascites were grossly evident, the animals were injected intraperitoneally with phosphate-buffered saline (PBS) as a control, melphalan (6.25 mg/kg), or melphan in combination with DEA/NO (70 mg/kg). Animals were assessed daily for survival.
FIG. 17 is a graph of % survival of animals versus days after treatment showing survival curves for animals treated with melphalan in the presence or absence of DEA/NO compared to control animals. Median survival of the control group was 15 days. Median survival of the group of mice treated with melphalan alone was 20 days, whereas median survival of the group of mice treated with melphalan and DEA/NO was 27 days.

[3] = system: Chinese hamster V79 lung fibroblasts; assay: Radiation survival of aerobic V79 cells, clonogenic assay; type: cell-based; details: 2.0 mM
Procedure: (§1) Chinese hamster V79 lung fibroblasts were cultured in F12 medium supplemented with 10% fetal calf serum and antibiotics. […] The assay system was specifically designed to evaluate radiation sensitivity of cells exposed to radiation under both aerobic and hypoxic conditions (Mitchell et al., Radiat. Res., 96, 422-428 (1983); Russo et al., Radiat. Res., 103, 232-239 (1985); and DeGraff et al., Int. J. Radiat. Oncol. Biol. Phys., 16, 1021-1024 (1989)).
(§2) When cultured cells were exposed to DEA/NO in subsequent examples, DEA/NO in F12 medium with 10 mM HEPES buffer, pH 7.0, was used. […] Control cells in subsequent examples were exposed to 0.02N NaOH, instead of DEA/NO.
(§3) Following irradiation, the various cell suspensions were pipetted, counted, diluted, and plated for macroscopic colony formation. Each dose determination was plated in triplicate and experiments were repeated a minimum of two times. Plates were incubated for seven days, after which colonies were fixed with methanol/acetic acid (3:1), stained with crystal violet, and counted. Colonies containing >50 cells were scored and graphed as FIGS. 1-3. Error bars in the graphs represent the standard deviation of the mean and are shown when larger than the symbol used to designate a data point. Survival curve data were fitted using a linear quadratic model of Albright (Radiat. Res., 112, 331-340 (1987)), and the survival curves shown in the figures represent the best fit curves for the experimental data points. Sensitizer enhancement ratios (SER) were calculated by dividing the radiation dose for control hypoxic conditions by the radiation dose for various agents under hypoxic conditions at the 1% surviving fraction level.

[4] = system: Chinese hamster V79 lung fibroblasts; assay: Cytotoxicity of the agents alone to V79 cells, clonogenic assay; details: 2.0 mM
Procedure: as §1, §2
Radiation survival curves for V79 cells exposed to varying concentrations of DEA/NO and various DEA/NO decomposition products under hypoxic conditions (metabolic hypoxia induction) are shown in FIG. 1A, which is a graph of the surviving fraction versus dose (Gy). Lines in FIG. 1A represent control (.circle-solid.) and 0.1 mM (Δ), 0.5 mM (.largecircle.), 1.0 mM (.quadrature.), and 2.0 mM (.box-solid.) DEA/NO. Survival curves were corrected for drug cytotoxicity as appropriate.
DEA/NO (2.0 mM) was allowed to decompose to liberate NO in medium maintained at 37° C. overnight in a flask open to the air for use as an additional control. The medium containing the DEA/NO decomposition products was then used to evaluate possible effects on radiosensitization.

[5] = system: Chinese hamster V79 lung fibroblasts; assay: Radiation survival of hypoxic V79 cells (metabolism-mediated oxygen depletion), clonogenic assay, SER; type: cell-based; details: for modification of hypoxic radiosensitivity: 2.0 mM; for SER: 2.00 mM, hypoxic, 1% surviving fraction level, ± SD
Procedure: as §1, §2
The induction of hypoxia in dense cell suspensions by metabolism-mediated oxygen depletion was carried out as described by Mitchell et al. (supra) and Phillips et al. (Int. J. Radiat. Oncol. Biol. Phys., 12, 1627-1635 (1986)). Briefly, stock cultures of exponentially growing Chinese hamster V79 lung fibroblasts in 850 cm^2 roller bottles were trypsinized, rinsed with medium, and counted. Samples of 10^8 cells were then placed in 15 ml centrifuge tubes, centrifuged at 1,000 rpm for 5 min at 25° C., and rinsed once with medium or medium containing DEA/NO (final concentrations ranging from 0.1-2.0 mM), nitrite, diethylamine, or DEA/NO that had been allowed to decompose in full medium overnight at 37° C.
The cell suspension was taken up into a 3 ml glass syringe with a 18 gauge spinal needle. Air bubbles were removed, and a 25 gauge needle was fitted onto the syringe. The syringe was rotated by hand at room temperature for 20 min to allow for cellular metabolic oxygen consumption. The syringe was then placed in a lucite block and irradiated. After a given dose of radiation, 1-3 drops of cell suspension were discarded, and 1-2 drops were collected in tubes containing drug-free medium. In this manner an entire hypoxic survival curve for a given treatment condition can be obtained from a single syringe.
(§4) Hypoxic Chinese hamster V79 lung fibroblasts of Example 2 were irradiated at room temperature with 4 MeV photons from a linear accelerator at a dose rate of 1.5 Gy/min. Full electron equilibrium was ensured for all irradiations.
as §3
Radiation survival curves for V79 cells exposed to varying concentrations of DEA/NO and various DEA/NO decomposition products under hypoxic conditions (metabolic hypoxia induction) are shown in FIG. 1A, which is a graph of the surviving fraction versus dose (Gy).

[6] = system: normal tissues; details: clinical radiotherapy trials; cited from earlier work
[7] = system: hypoxic bacterial cells; details: cited from earlier work
[8] = system: lungs; details: NO gas, in vivo; cited from earlier work
[9] = system: Chinese hamster V79 lung fibroblasts; assay: Radiation survival of hypoxic V79 monolayers gassed with nitrogen and exposed to NO gas; type: cell-based
Procedure: as §4, §3

[10] = system: rodent tumors; details: hyperbaric oxygen (100%); cited from earlier work
[11] = system: cells in culture; details: aerobic (~20% oxygen) vs hypoxic (<0.5% oxygen); cited from earlier work
[12] = system: hypoxic cells; details: without the nitrobenzoyl group; cited from earlier work
[13] = system: transplantable murine tumor; details: mouse, in vivo; cited from earlier work
[14] = system: Chinese hamster V79 fibroblasts; assay: Chemosensitization of V79 cells to bioreductive agents (mitomycin C, SR 4233); details: hypoxic, 1 hr
[15] = system: Chinese hamster V79 fibroblasts; assay: Protection of V79 cells from cisplatin cytotoxicity; type: cell-based; details: 1 mM, 1 hr
Procedure: Chinese hamster V79 fibroblasts were exposed to varying concentrations of cisplatin under aerobic conditions for 1 hr in the presence or absence of 1 mM PAPA/NO, n-propyl-1,3-propane diamine (PPD), or released PAPA/NO under aerobic conditions. Methods used were as described in Examples 2 and 13.

CC(=O)N[C@H](C(=O)O)C(C)(C)SN=O [SNAP, S-nitroso-N-acetyl penicillamine, reference compound]
susceptibility of hypoxic cells to radiation ([1]; 2 mM plus 20 Gy, Example 7): significantly more susceptible to radiation than control cells

N[C@@H](Cc1ccc(N(CCCl)CCCl)cc1)C(=O)O [melphalan]
Overall survival vs control group ([2]; log-rank testing): significantly longer than the control group | Median survival ([2]; melphalan 6.25 mg/kg i.p., with or without DEA/NO 70 mg/kg): 20 days

O=NO [Nitrite, nitrite, reference compound]
effect on aerobic radiosensitivity [3]: did not significantly alter the aerobic radiosensitivity | cytotoxicity of decomposition products alone [4]: Neither nitrite, diethylamine, or decomposed DEA/NO alone resulted in any cytotoxicity | modification of hypoxic radiosensitivity [5]: nor did any of these agents significantly modify hypoxic radiosensitivity | SER [5]: 1.0

NCCCNCCCCN(CCCN)/[N+]([O-])=N/O [SPER/NO]
susceptibility of hypoxic cells to radiation ([1]; 1 mM plus 15 Gy): more susceptible to radiation than control cells

COCC(O)Cn1ccnc1[N+](=O)[O-] (centres unmarked) [Misonidazole, misonidazole]
toxicity to normal tissues [6]: toxic to normal tissues, causing peripheral neuropathy

nitric oxide [NO gas]
toxicity in the absence of radiation [7]: nontoxic in the absence of radiation | radiosensitization of hypoxic bacterial cells ([7]; ionizing radiation): sensitizes hypoxic bacterial cells to ionizing radiation | damage on administration of high concentrations [8]: damage to the lungs | SER ([9]; 10^5 ppm NO, hypoxic): 3.2 | hypoxic cell radiosensitization ([9]; NO gas vs control / oxygen): potent hypoxic cell radiosensitizer; also recorded: not as efficient as oxygen in hypoxic cell radiosensitization

O=O [oxygen]
hypoxic radiosensitization in rodent tumors [10]: some degree of hypoxic radiosensitization in rodent tumors | enhancement of killing of cells in culture with X-rays (factor) [11]: 2-3 | EC50 ([9]; Cricetulus griseus, Fibroblast, hypoxic cell radiosensitization, read-out: k value (concentration required to yield half the maximum effect)): 2500 µg/mL

CCNCC [Diethylamine, diethylamine, reference compound]
effect on aerobic radiosensitivity [3]: did not significantly alter the aerobic radiosensitivity | cytotoxicity of decomposition products alone [4]: Neither nitrite, diethylamine, or decomposed DEA/NO alone resulted in any cytotoxicity | modification of hypoxic radiosensitivity [5]: nor did any of these agents significantly modify hypoxic radiosensitivity | SER [5]: 1.0

NCCCNCCCCNCCCN [spermine]
sensitizing properties [12]: failed to demonstrate any sensitizing properties whatsoever

Cl.N=c1c[n+](N2CCOCC2)[n-]o1 [SIN-1, 3-morpholino-sydnonimine hydrochloride, reference compound]
enhancement of tumor radiation sensitivity [13]: enhances the radiation sensitivity of a transplantable murine tumor | susceptibility of hypoxic cells to radiation ([1]; 2 mM plus 20 Gy, Example 10): not significantly sensitized to radiation as compared to control cells

CCCN(CCCN)/[N+]([O-])=N/O [PAPA/NO]
enhancement of hypoxic cytotoxicity of SR 4233 ([14]; 25 μm SR 4233, 1 mM): enhance the hypoxic cytotoxicity of SR 4233 | colonies formed when 100,000 cells were plated ([14]; 25 μm SR 4233 plus 1 mM): no colonies were formed | protection against aerobic cisplatin-induced cytotoxicity [15]: protected V79 fibroblasts against aerobic cisplatin-induced cytotoxicity | susceptibility of hypoxic cells to radiation ([1]; 2 mM plus 20 Gy, Example 10): much more susceptible to radiation than control cells

NCCCCNCCCN [spermidine]
sensitizing properties [12]: failed to demonstrate any sensitizing properties whatsoever
